System: glucosidase
Test: Fecal enzyme activity of flora of HFA mice: glucosidase
Type: in vivo, human intestinal normal bacterial flora
Experimental: For the one week, the feces were picked free from germs with the interval of two to three days. The feces collected at the day of colistin sulfate administration, 2nd, 4th, 7th, 10th, 13th, 17th and 20th days and at 3rd and 5th day after the stop of medication are put in an encapsulated tube and moved to an anaerobic chamber immediately and the activity of glucuomidase, glucosidase, nitrate reductase and azoreductase produced by the human intestinal normal bacterial flora is measured. As a result glucuronidase is decreased throughout the period of administration and the withdrawal period in comparison with control groups and is not recovered even at the 5th day since the medication is stopped. Glucosidase is increased during the medication period in comparison with the control groups. Nitrate reductase is increased in comparison with the control group at the start day of administration and the 2nd day of the medication but is recovered. Azoreductase is increased in comparison with the control group until the 7th day of medication and then decreased.

Substance: colistin sulfate
- Glucosidase activity, recovery (5th day since the medication is stopped): not recovered
- Glucosidase activity in comparison with the control groups (during the medication period): increased

Source: patent publication US20120165223A1 (priority 2006, published 2012)
